Assay results published in PMC6017563 (Molecules : A Journal of Synthetic Chemistry and Natural …, 2018).

Legend:
in vivo = details: rat; for half-life: plasma
Procedure: The PK parameters for each experimental group were estimated by one-compartmental analysis using WinNonlin® software (version 7.0, Pharsight®, a Certara™ Company, Princeton, NJ, USA).
For the vehicle-administered groups (Groups 2 and 5), the above dispersion solution was administered instead of the drug (Table 5). Blood samples were directly drawn from the right jugular vein at predetermined time intervals before administration and at 0.25, 1, 2, 4, 8 h, 1, 2, 3, 4, 5, 6, 7, 11, and 14 days after the drug administration. Approximately 300 μL of blood was collected periodically in heparinized tubes via the catheter and was immediately centrifuged at 12,000 g for 5 min and then stored at −80 °C until analysis.
After being shaken with a vortex mixer for 3 min and centrifuged at 10,000× g for 5 min at room temperature, the upper supernatant was transferred to a clean tube and mixed with 20 µL of acetic acid and 900 µL of methylene chloride by vortex-mixing for 3 min and centrifugation at 10,000× g for 5 min at room temperature. The aqueous upper sample aliquots (10 µL) were directly injected into the UPLC–MS/MS system. Analyses were performed with the following UPLC–MS/MS system: Acquity™ UPLC system (Waters Corp., Milford, MA, USA), Mass Spectrometer (Xevo™ TQ-S, Waters Corp.), HALO peptide ES-C18 column (2.1 mm × 100 mm, 2.7 µm particle size, Advanced Material Technology, Wilmington, DE, USA). The mobile phase consisted of 1% acetic acid in water and 1% acetic acid in acetonitrile with gradient at a flow rate of 0.2 mL/min.
The mass spectrometric detection was performed using an electrospray ionization (ESI) source in positive ionization mode. The optimization of MS parameters was accomplished as follows: capillary voltage, 2.9 kV; ion source temperature, 150 °C; desolvation temperature, 350 °C; flow rate of cone gas, 150 L/h; flow rate of desolation gas, 600 L/h; and pressure of argon gas, 4.5 × 10^−3 mbar, respectively. […] Data acquisition and analysis were performed by Masslynx 4.1 software (Waters Corp., Milford, CT, USA).
The PK and PD analysis was performed by non-compartmental and compartment analysis using WinNonlin® software (version 7.0, Pharsight®, a Certara™ Company, Princeton, NJ, USA). The maximum plasma concentration (Cmax) and the time to reach Cmax (Tmax) were measured by visual observation of the individual plasma concentration–time curve. The AUC0–∞ was integrated by the linear trapezoidal rule from time zero to the final measured concentration and was extrapolated from the final measured concentration to infinity. […] The elimination rate constant k is a value used to describe the rate at which the drug is removed from the biological system. The volume of distribution (Vd), which is the theoretical volume in biological fluid, was calculated as CL divided by the k, and the bioavailability (F) was estimated as the AUC0–∞ obtained from SC administration divided by the AUC0–∞, obtained from IV administration. AUEC could be estimated by numerical integration over all segments of the effect-time curve by the trapezoidal rule without extrapolation to infinity. Because the endogenous testosterone was used as a PD marker in this study, the AUEC value subtracted from the baseline AUEC was used for data analysis.
The PK–PD modeling was conducted to describe the PK–PD relationship, and to estimate model parameters using Berkeley Madonna software (ver. 8.3.14). Berkeley Madonna software is a useful tool for modeling and analysis of various biological systems by solving the various differential equations. […] Consequently, the PD model was established in two steps. First, the baseline model was developed by using the baseline profiles of the vehicle-administered control group. Second, the drug-effect model was established based on the parameters that were estimated from the baseline model.

testosterone in plasma = test: Testosterone-suppressive effect (plasma testosterone, AUEC, PK-PD model), normal rats; format: in vivo; details: Wistar, baseline AUEC subtracted, mean ± SE, n = 5
Description: Leuprolide is a GnRH agonist for the treatment of prostate cancer which is a target disease in this study. In the label of the Lucrin depot, this is indicated for palliative treatment of advanced prostatic cancer. Therefore, we used the testosterone concentration as a PD marker of prostate cancer, and plasma testosterone is one of qualified biomarkers used as outcomes in the therapeutic area of oncology. Since most of the PD responses are expressed as a concentration profile of endogenous substances, it is difficult to calculate the value as a general trapezoidal rule. Scheff et al. introduced several methods for calculating AUEC when baselines differ. In this study, drug-specific AUEC was calculated by subtracting the baseline AUEC from the AUEC calculated by a general method, and these drug-specific AUECs were calculated by dividing them into positive AUECs and negative AUECs. […] There were significant differences between positive and negative AUEC in all experimental groups. When absolute values of positive and negative AUEC were compared, negative AUEC was more than three times higher. […] However, there was no significant difference in AUEC between each group on formulation, species and route of administration. This estimation of AUEC means that it could be used as a method for evaluating the formulation.
The PK–PD model, which describes the mechanism of negative feedback of leuprolide, was selected based on leuprolide mechanism characteristics and biomarker characteristics. […] The equations of the baseline model are as follows:(11) dR/dt = kin−kout·R (12) R0, wistar = 4.353 (13) R0,Iar:COP = 4.094 where kin and kout represent the apparent zero-order rate constant for the production of response and the first-order rate constant for the loss of response, respectively. These were estimated by curve fitting with the vehicle-administered group and used as the basic parameters of the drug-effect model described below (Group 2).
For this, several PD models were attempted, and the final PD model decided on was the tolerance model including the feedback compartment.
The plasma concentration of testosterone in plasma samples of each group was quantified using testosterone enzyme-linked immunosorbent assay (ELISA) kits (R&D Systems, Minneapolis, MN, USA). […]
Determination of the testosterone concentration was performed on using the validated Parameter^TM Testosterone Assay (R&D Systems, Minneapolis, MN, USA) and its process. […] The reaction was stopped when 50 μL of stop solution (2N sulfuric acid) was added, and the optical density of each well was measured using SynergyMX (BioTek, Winooski, VT, USA). All plasma samples were measured twice. […]

[1] = Group 1, leuprolide solution 0.1 mg/kg IV
[2] = Group 3, leuprolide solution 0.1 mg/kg SC

AUC(0-inf) (in vivo; Wistar, in vivo, iv, 0.1 mg/kg): 106 ± 17.3 ng·h/mL
AUC(0-t) (in vivo; Wistar, in vivo, iv, 0.1 mg/kg): 103 ± 16.9 ng·h/mL
C0 (in vivo; Wistar, in vivo, iv, 0.1 mg/kg): 97.1 ± 13 ng/mL
Vd (in vivo; Wistar, in vivo, iv, 0.1 mg/kg): 0.193 ± 0.0542 L
clearance (in vivo; Wistar, in vivo, iv, 0.1 mg/kg): 4.14 mL/min
AUC(0-inf) (in vivo; Wistar, in vivo, sc, 0.1 mg/kg): 53.3 ± 9.96 ng·h/mL
AUC(0-t) (in vivo; Wistar, in vivo, sc, 0.1 mg/kg): 51.2 ± 9.56 ng·h/mL
Cmax (in vivo; Wistar, in vivo, sc, 0.1 mg/kg): 41.5 ± 4.61 ng/mL
bioavailability (in vivo; Wistar, in vivo, sc, 0.1 mg/kg): 50.6%
half-life (in vivo; Wistar, iv, 0.1 mg/kg): 31.2 ± 6 min
half-life (in vivo; Wistar, sc, 0.1 mg/kg): 39.6 ± 1.8 min
CL (in vivo; in vivo): 514.46 ± 40.10 mL/h
F (bioavailability) (in vivo; in vivo): 50.6%
Vd (in vivo; in vivo): 0.4874 ± 0.02902 L
SMILES: CCNC(=O)[C@@H]1CCCN1C(=O)[C@H](CCCNC(=N)N)NC(=O)[C@H](CC(C)C)NC(=O)[C@@H](CC(C)C)NC(=O)[C@H](Cc1ccc(O)cc1)NC(=O)[C@H](CO)NC(=O)[C@H](Cc1c[nH]c2ccccc12)NC(=O)[C@H](Cc1c[nH]cn1)NC(=O)[C@@H]1CCC(=O)N1 [leuprolide, Leuprolide (Pyr-His-Trp-Ser-Tyr-D-Leu-Leu-Arg-Pro-NHEt)]
Negative AUEC (drug-specific, testosterone-suppressive effect) (testosterone in plasma; [1]): −1404.30 ± 287.31
Positive AUEC (drug-specific, testosterone flare-up effect) (testosterone in plasma; [1]): 208.24 ± 52.30
Negative AUEC (drug-specific, testosterone-suppressive effect) (testosterone in plasma; [2]): −775.98 ± 289.13
Positive AUEC (drug-specific, testosterone flare-up effect) (testosterone in plasma; [2]): 220.87 ± 39.56
